Data published in patent US20240027450A1, “COMPOSITIONS AND METHODS FOR […]-COV-2 (COVID-19) AND FOR […]-COV-2-[…] IMM[…]” (QIAGEN SCIENCES LLC, priority 2020, published 2024).

Test system: T cells in whole blood samples
Experiment: IFN-γ release (QuantiFERON SARS-CoV-2 tubes, ELISA) in whole blood of vaccinated donors, Example 2
Assay type: cell-based, human

phytohemagglutinin [Mit]
IFN-γ, Nil-subtracted (Donor 1, Day 4 after first dose of vaccine): 7.19 IU/mL
IFN-γ, Nil-subtracted (Donor 1, Day 11 after first dose of vaccine): >10 IU/mL
IFN-γ, Nil-subtracted (Donor 2, Day 4 after first dose of vaccine): 5.74 IU/mL
IFN-γ, Nil-subtracted (Donor 2, Day 11 after first dose of vaccine): >10 IU/mL
IFN-γ, Nil-subtracted (Donor 3, Day 4 after first dose of vaccine): 7.07 IU/mL
IFN-γ, Nil-subtracted (Donor 3, Day 11 after first dose of vaccine): >10 IU/mL
IFN-γ, Nil-subtracted (Donor 4, Day 4 after first dose of vaccine): 5.78 IU/mL
IFN-γ, Nil-subtracted (Donor 4, Day 11 after first dose of vaccine): >10 IU/mL
IFN-γ, Nil-subtracted (Donor 5, Day 4 after first dose of vaccine): 7.13 IU/mL
IFN-γ, Nil-subtracted (Donor 5, Day 11 after first dose of vaccine): >10 IU/mL
IFN-γ, Nil-subtracted (Donor 6, Day 4 after first dose of vaccine): 6.59 IU/mL
IFN-γ, Nil-subtracted (Donor 6, Day 11 after first dose of vaccine): >10 IU/mL
IFN-γ, Nil-subtracted (Donor 7, Day 4 after first dose of vaccine, […]): 3.01 IU/mL
IFN-γ, Nil-subtracted (Donor 7, Day 11 after first dose of vaccine): >10 IU/mL
IFN-γ, Nil-subtracted (Donor 8, Day 7 after first dose of vaccine): 7.13 IU/mL
IFN-γ, Nil-subtracted (Donor 9, Day 0 after first dose of vaccine): 6.19 IU/mL
IFN-γ, Nil-subtracted (Donor 9, Day 7 after first dose of vaccine): >10 IU/mL
IFN-γ, Nil-subtracted (Donor 10, Day 7 (Second Dose)): >10 IU/mL
IFN-γ, Nil-subtracted (Donor 10, Day 22 (First-dose)): >10 IU/mL
